{"source": "patent US5409937A", "about": "“Hexahydrofuro(2,3-b)furans as PAF antagonists” (British Biotech Pharmaceuticals Limited, priority 1991, dated 1995)"}
{"molecular_target": "T1, PAF receptor (Homo sapiens, UniProt P25105)", "T1 construct": "washed human platelet membranes; from tissue; host or cells: human platelets (platelet concentrates from a hospital blood bank), lysed washed membranes", "T1 sequence (P25105 whole entry)": "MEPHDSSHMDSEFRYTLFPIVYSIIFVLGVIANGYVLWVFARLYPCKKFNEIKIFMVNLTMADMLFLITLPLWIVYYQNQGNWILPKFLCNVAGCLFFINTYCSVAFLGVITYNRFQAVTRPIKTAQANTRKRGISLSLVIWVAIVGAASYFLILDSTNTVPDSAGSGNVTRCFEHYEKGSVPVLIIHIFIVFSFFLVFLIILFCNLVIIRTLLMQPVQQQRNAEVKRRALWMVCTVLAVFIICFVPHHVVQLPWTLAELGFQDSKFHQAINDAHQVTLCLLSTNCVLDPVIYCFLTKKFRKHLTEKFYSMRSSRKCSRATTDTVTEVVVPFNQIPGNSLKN", "experiment": "Inhibition of [^3 H]-PAF binding to washed human platelet membranes", "conditions": "0.5 nM [^3 H]-PAF, 1 hour at 0° C., pH 7.0, 0.25% BSA", "experimental": "Inhibition of [^3 H]-PAF binding to washed human platelet membranes\nIn common with the compounds of the invention (general formula I) those of Examples 1-13 it PAF-induced functions at both cellular and tissue levels by inhibition of PAF binding to its specific receptor site. The inhibition of [^3 H]-PAF binding to washed human platelet membranes by representative compounds was determined by isotopic labelling and filtration techniques. Platelet concentrates were obtained from a hospital blood bank. These platelet concentrates (500-2500 ml.) were centrifuged at 800 rpm for 10 minutes in a SORVALL RC3B centrifuge to remove the red blood cells present. (The word SORVALL is a trade mark.) The supenatant was subsequently centrifuged at 3,000 rpm in a SORVALL RC3B centrifuge to pellet the platelets present. The platelet rich pellets were resuspended in a minimum volume of buffer (150 mM NaCl, 10 mM Tris, 2 mM EDTA, pH 7.5) and layered onto Ficoll-Paque gradients, 9 ml platelet concentrate to 2 ml Ficoll, and centrifuged at 1,900 rpm for 15 minutes in a SORVALL RT6000 centrifuge. This step removes the residual red blood cells and other nonspecific material such as lymphocytes from the preparation. The platelets which form a band between the plasma and the Ficoll were removed, resuspended in the above buffer and centrifuged at 3,000 rpm for 10 minutes in a SORVALL RT6000 centrifuge. […]\nThe assay was conducted by preparing a series of Tris-buffered solutions of the selected antagonist of predetermined concentrations. […] Each washed residue was dried under vacuum on a sampling manifold and placed into vials containing 20 ml of OPTIPHASE MP scintillation fluid and the radioactivity counted in a liquid scintillation counter. (The word OPTIPHASE is a trade mark.) Defining the counts for total binding with antagonist from a test sample as \"TBA\"; the counts for total binding from the control sample C1 as \"TB\"; and the counts for nonspecific binding from the control sample C2 as \"NSB\", the percent inhibition of each test antagonist can be determined by the following equation: […]", "units": {"IC50": "nM"}}
{"molecule": "Cc1nc2ccccc2n1C[C@H]1C[C@@H]2C[C@H](c3ccc(F)cc3)O[C@@H]2O1", "note": "(relative stereo) [1(e), (2R*, 3aS*, 5R*, 6aR*)-5-(4-fluorophenyl)-2-(1H-2-methylbenzimidazol-1-ylmethyl)hexahydrofuro[2,3-b]furan]", "IC50": 450}
{"molecule": "Cc1nc2ccccc2n1C[C@H]1C[C@@H]2C[C@@H](c3ccc(F)cc3)O[C@@H]2O1", "note": "(relative stereo) [1(d), (2R*, 3aS*, 5S*, 6aR*)-5-(4-Fluorophenyl)-2-(1H-2-methylbenzimidazol-1-ylmethyl)hexahydrofuro[2,3-b]furan]", "IC50": 8000}
{"molecule": "Cc1nc2cnccc2n1C[C@H]1C[C@@H]2C[C@@H](c3ccc(F)cc3)O[C@@H]2O1", "note": "(relative stereo) [Example 2, 5-(4-Fluorophenyl)-2-(1H-2-methylimidazo[4,5-c]pyrid-1-ylmethyl)hexahydrofuro[2,3-b]furan]", "IC50": 240}
